As usually defined, the Ki is the equilibrium dissociation constant of an inhibitor or competing ligand from its target.

For assay [1], the target named is T1, P2X7 (Homo sapiens (Human), UniProt Q99572). In words: Radioligand binding, human P2X7-1321N1 cell membranes, tracer tritiated A-804598. As to conditions: Table 3 (additional runs). The protocol:
P2X7 Antagonism in Recombinant Human P2X7 Cells or Recombinant Rat P2X7 Cells: (a) Ca^2+ Flux and (b) Radioligand Binding
(b) Radioligand Binding: human or rat P2X7-1321N1 cells were collected and frozen @−80° C. On the day of the experiment, cell membrane preparations were made according to standard published methods. The total assay volume was 100 μl:10 μl compound (10×)+(b) 40 μl tracer (2.5×)+50 μl membrane (2×). The tracer used for the assay was tritiated A-804598. The compound can be prepared as described in the literature. (Donnelly-Roberts, D. Neuropharmacology 2008, 56 (1), 223-229.) Compounds, tracer and membranes were incubated for 1 hour @ 4° C. The assay was terminated by filtration (GF/B filters pre-soaked with 0.3% PEI) and washed with washing buffer (Tris-HCl 50 mM). The IC50 generated in the binding assay was corrected for tracer concentration and affinity of the tracer to derive at the affinity (K) of the test compounds. […] Data are analyzed and graphed on Graphpad Prism 5. For analysis, each concentration point is averaged from triplicate values and the averaged values are plotted on Graphpad Prism.

Assay [2] deals with T1, P2X7. The assay is described as follows: P2X7 antagonism in human peripheral blood mononuclear cells (PBMCs), IL-1β release. It counts as cell-based. As to conditions: P2X7; Table 3 (additional runs); 10 μM compound; read-out: PBMC 10 μM (% control). In a few lines:
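Ficoll-isolated human PBMCs primed with LPS (30 ng/ml) for 1 h, treated with compound for 30 min, then stimulated with 0.5 mM Bz-ATP for 1.5 h. Supernatant IL-1β measured by ELISA as % of LPS+Bz-ATP minus LPS-only release; IC50 from concentration–response of triplicate means.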

SMILES strings stand for the structures.

T1 sequence (Q99572 whole entry): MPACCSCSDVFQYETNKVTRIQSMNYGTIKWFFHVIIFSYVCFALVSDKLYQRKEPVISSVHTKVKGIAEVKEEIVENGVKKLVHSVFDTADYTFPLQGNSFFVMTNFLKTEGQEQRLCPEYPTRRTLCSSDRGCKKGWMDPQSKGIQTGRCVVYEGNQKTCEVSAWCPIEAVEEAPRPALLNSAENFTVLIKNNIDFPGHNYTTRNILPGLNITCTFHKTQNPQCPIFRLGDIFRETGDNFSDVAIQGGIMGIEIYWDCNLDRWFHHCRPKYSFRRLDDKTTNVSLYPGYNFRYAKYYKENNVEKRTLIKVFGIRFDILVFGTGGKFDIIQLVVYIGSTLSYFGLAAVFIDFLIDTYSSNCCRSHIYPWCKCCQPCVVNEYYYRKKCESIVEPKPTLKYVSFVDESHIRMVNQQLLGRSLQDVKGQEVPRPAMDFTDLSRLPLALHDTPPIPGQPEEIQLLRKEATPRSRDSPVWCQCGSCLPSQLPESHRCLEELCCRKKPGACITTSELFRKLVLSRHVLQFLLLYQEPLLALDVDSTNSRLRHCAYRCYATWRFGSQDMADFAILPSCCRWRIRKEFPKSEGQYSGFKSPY

In turn, `COc1ccnc(-c2nnc3n2C[C@H](C)n2c(-c4cccc(Cl)c4Cl)nnc2-3)c1` [Example 129, (S)-3-(2,3-dichlorophenyl)-8-(4-methoxypyridin-2-yl)-5-methyl-5,6-dihydrobis([1,2,4]triazolo)[4,3-a:3′,4′-c]pyrazine] registered a Ki at P2X7 [1] of 10 nM. Besides, the remaining activity at 10 µM at P2X7 [2] is -0.2%.
Compound `Cc1c(-c2nnc3n2[C@@H](C)Cn2c(-c4ccc(F)cn4)nnc2-3)cccc1C(F)(F)F` [Example 128, (S)-8-(5-fluoropyridin-2-yl)-5-methyl-3-(2-methyl-3-(trifluoromethyl)phenyl)-5,6-dihydrobis([1,2,4]triazolo)[4,3-a:3′,4′-c]pyrazine] returned a Ki on P2X7 [1] of 6.3 nM. The remaining activity at 10 µM on P2X7 [2] came to 3.8%.
Regarding `C[C@H]1Cn2c(-c3ccccn3)nnc2-c2nnc(-c3cccc(C(F)(F)F)c3Cl)n21` [Example 124, (S)-3-(2-chloro-3-(trifluoromethyl)phenyl)-5-methyl-8-(pyridin-2-yl)-5,6-dihydrobis([1,2,4]triazolo)[4,3-a:3′,4′-c]pyrazine], the Ki on P2X7 [1] turned out to be 3.6 nM. In addition, the remaining activity at 10 µM at P2X7 [2] was -4.2%.
Regarding `COc1ccnc(-c2nnc3n2C[C@H](C)n2c(-c4cccc(C(F)(F)F)c4C)nnc2-3)c1` [Example 131, (S)-8-(4-methoxypyridin-2-yl)-5-methyl-3-(2-methyl-3-(trifluoromethyl)phenyl)-5,6-dihydrobis([1,2,4]triazolo)[4,3-a:3′,4′-c]pyrazine], the inhibitory constant (Ki) at P2X7 [1] was 5 nM. Further, the remaining activity at 10 µM at P2X7 [2] came out at 0.7%.
`C[C@H]1Cn2c(-c3nccs3)nnc2-c2nnc(-c3cccc(C(F)(F)F)c3Cl)n21` [Example 106, (5S)-3-[2-Chloro-3-(trifluoromethyl)phenyl]-5-methyl-8-(1,3-thiazol-2-yl)-5,6-dihydrobis[1,2,4]triazolo[4,3-a:3′,4′-c]pyrazine] showed an inhibition constant (Ki) on P2X7 [1] of 12.6 nM. Besides, the remaining activity at 10 µM on P2X7 [2] came out at 1.9%.
The compound `C[C@H]1Cn2c(-c3cnco3)nnc2-c2nnc(-c3cccc(C(F)(F)F)c3Cl)n21` [Example 115, (5S)-3-[2-Chloro-3-(trifluoromethyl)phenyl]-5-methyl-8-(1,3-oxazol-5-yl)-5,6-dihydrobis[1,2,4]triazolo[4,3-a:3′,4′-c]pyrazine] displayed an inhibition constant (Ki) at P2X7 [1] of 43.7 nM. Further, the remaining activity at 10 µM at P2X7 [2] is 2.1%.
`C[C@H]1Cn2c(-c3ccc(F)cc3)nnc2-c2nnc(-c3cccc(C(F)(F)F)c3Cl)n21` [Example 101, (5S)-3-[2-Chloro-3-(trifluoromethyl)phenyl]-8-(4-fluorophenyl)-5-methyl-5,6-dihydrobis[1,2,4]triazolo[4,3-a:3′,4′-c]pyrazine]: on P2X7 [1], the Ki worked out at 39.8 nM. At P2X7 [2], the remaining activity at 10 µM is 1.2%.
The corresponding values for `C[C@H]1Cn2c(-c3nccc(C(F)(F)F)n3)nnc2-c2nnc(-c3cccc(C(F)(F)F)c3Cl)n21` [Example 118, (S)-3-[2-chloro-3-(trifluoromethyl)phenyl]-5-methyl-8-(4-(trifluoromethyl)pyrimidin-2-yl)-5,6-dihydrobis[1,2,4]triazolo[4,3-a:3′,4′-c]pyrazine] are 63.1 nM and 9.9%.
At P2X7 [1], `C[C@H]1Cn2c(-c3cc[nH]n3)nnc2-c2nnc(-c3cccc(C(F)(F)F)c3Cl)n21` [Example 103, (5S)-3-[2-Chloro-3-(trifluoromethyl)phenyl]-5-methyl-8-(1H-pyrazol-3-yl)-5,6-dihydrobis[1,2,4]triazolo[4,3-a:3′,4′-c]pyrazine] gave an inhibition constant Ki of 22.4 nM. In addition, the remaining activity at 10 µM on P2X7 [2] was found to be 3.3%.
In the case of `Cc1ccc(-c2nnc3n2C[C@H](C)n2c(-c4cccc(C(F)(F)F)c4Cl)nnc2-3)s1` [Example 121, (S)-3-[2-chloro-3-(trifluoromethyl)phenyl]-5-methyl-8-(5-methylthiophen-2-yl)-5,6-dihydrobis[1,2,4]triazolo[4,3-a:3′,4′-c]pyrazine], at P2X7 [1], the Ki is 15.8 nM. Further, on P2X7 [2], the remaining activity at 10 µM is 9.3%.
Turning to `C[C@H]1Cn2c(-c3ccc(Cl)cn3)nnc2-c2nnc(-c3cccc(C(F)(F)F)c3Cl)n21` [Example 120, (S)-3-[2-chloro-3-(trifluoromethyl)phenyl]-5-methyl-8-(5-chloropyridin-2-yl)-5,6-dihydrobis[1,2,4]triazolo[4,3-a:3′,4′-c]pyrazine], the affinity at P2X7 [1] corresponds to a Ki of 25.1 nM. The remaining activity at 10 µM at P2X7 [2] came out at 7%.
The corresponding values for `C[C@H]1Cn2c(-c3cnccn3)nnc2-c2nnc(-c3cccc(Cl)c3Cl)n21` [Example 100, (5S)-3-(2,3-Dichlorophenyl)-5-methyl-8-pyrazin-2-yl-5,6-dihydrobis[1,2,4]triazolo[4,3-a:3′,4′-c]pyrazine] are 20 nM and 17.2%.
Compound `Cc1cnc(-c2nnc3n2C[C@H](C)n2c(-c4cccc(C(F)(F)F)c4Cl)nnc2-3)cn1` [Example 110, (5S)-3-[2-Chloro-3-(trifluoromethyl)phenyl]-5-methyl-8-(5-methylpyrazin-2-yl)-5,6-dihydrobis[1,2,4]triazolo[4,3-a:3′,4′-c]pyrazine] had a Ki at P2X7 [1] of 63.1 nM. On P2X7 [2], the remaining activity at 10 µM was -1.4%.
Compound `Cc1ccnc(-c2nnc3n2C[C@H](C)n2c(-c4cccc(C(F)(F)F)c4Cl)nnc2-3)c1` [Example 125, (S)-3-(2-chloro-3-(trifluoromethyl)phenyl)-5-methyl-8-(4-methylpyridin-2-yl)-5,6-dihydrobis([1,2,4]triazolo)[4,3-a:3′,4′-c]pyrazine] came in with a Ki at P2X7 [1] of 10.5 nM. For the same compound, the remaining activity at 10 µM on P2X7 [2] amounted to 28.5%.
Compound `C[C@H]1Cn2c(-c3ccc(F)cn3)nnc2-c2nnc(-c3ccc(Cl)cc3Cl)n21` [Example 127, (S)-3-(2,4-dichlorophenyl)-8-(5-fluoropyridin-2-yl)-5-methyl-5,6-dihydrobis([1,2,4]triazolo)[4,3-a:3′,4′-c]pyrazine] gave an inhibitory constant (Ki) at P2X7 [1] of 10 nM. Further, the remaining activity at 10 µM at P2X7 [2] worked out at 0.1%.
